Measurements from PubChem BioAssay (NCI).
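Values below derive from 48-hour exposures of cells grown in 96-well plates, with endpoints linearly interpolated between the two concentrations bracketing the appropriate inhibition level. GI50 marks 50% less growth. TGI is the concentration that stops growth completely.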

Experiments:
Experiment in all cases: growth of human tumour cells (NCI), 48 h
OVCAR-5 ovarian = tested on: OVCAR-5 ovarian
786-0 renal = tested on: 786-0 renal
MCF7 breast = tested on: MCF7 breast
SNB-19 CNS = tested on: SNB-19 CNS
HL-60(TB) leukemia = tested on: HL-60(TB) leukemia
RPMI-8226 leukemia = tested on: RPMI-8226 leukemia
HOP-62 NSCLC = tested on: HOP-62 NSCLC
SF-539 CNS = tested on: SF-539 CNS
MDA-MB-435 = tested on: MDA-MB-435
OVCAR-8 ovarian = tested on: OVCAR-8 ovarian
M14 melanoma = tested on: M14 melanoma
A549 NSCLC = tested on: A549 NSCLC
SNB-75 CNS = tested on: SNB-75 CNS
SK-MEL-5 melanoma = tested on: SK-MEL-5 melanoma
K-562 leukemia = tested on: K-562 leukemia
TK-10 renal = tested on: TK-10 renal
SF-268 CNS = tested on: SF-268 CNS
HS 578T breast = tested on: HS 578T breast
IGROV1 ovarian = tested on: IGROV1 ovarian
LOX IMVI melanoma = tested on: LOX IMVI melanoma
NCI-H522 lung = tested on: NCI-H522 lung
A498 renal = tested on: A498 renal
ACHN renal = tested on: ACHN renal
HCT-15 colon = tested on: HCT-15 colon
BT-549 breast = tested on: BT-549 breast
COLO 205 colon = tested on: COLO 205 colon
U251 CNS = tested on: U251 CNS
MALME-3M melanoma = tested on: MALME-3M melanoma
CCRF-CEM leukemia = tested on: CCRF-CEM leukemia
SK-MEL-2 melanoma = tested on: SK-MEL-2 melanoma
NCI-H226 lung = tested on: NCI-H226 lung
CAKI-1 renal = tested on: CAKI-1 renal
RXF 393 renal = tested on: RXF 393 renal
MDA-MB-231 breast = tested on: MDA-MB-231 breast
KM12 colon = tested on: KM12 colon
NCI-H460 lung = tested on: NCI-H460 lung
MOLT-4 leukemia = tested on: MOLT-4 leukemia
SW-620 colon = tested on: SW-620 colon
SK-MEL-28 melanoma = tested on: SK-MEL-28 melanoma
NCI/ADR-RES ovarian = tested on: NCI/ADR-RES ovarian
PC-3 prostate = tested on: PC-3 prostate
SK-OV-3 ovarian = tested on: SK-OV-3 ovarian
UACC-62 melanoma = tested on: UACC-62 melanoma
OVCAR-4 ovarian = tested on: OVCAR-4 ovarian
UACC-257 melanoma = tested on: UACC-257 melanoma
HCT-116 colon = tested on: HCT-116 colon
EKVX NSCLC = tested on: EKVX NSCLC
HCC-2998 colon = tested on: HCC-2998 colon
HOP-92 NSCLC = tested on: HOP-92 NSCLC
SN12C renal = tested on: SN12C renal
MDA-N = tested on: MDA-N
HT29 colon = tested on: HT29 colon
DU-145 prostate = tested on: DU-145 prostate
SR leukemia = tested on: SR leukemia
OVCAR-3 ovarian = tested on: OVCAR-3 ovarian
T-47D breast = tested on: T-47D breast
NCI-H23 lung = tested on: NCI-H23 lung
SF-295 CNS = tested on: SF-295 CNS
UO-31 renal = tested on: UO-31 renal

In the case of `CN(C)c1ccc(-c2c(C#N)c(O)n(NS(=O)(=O)c3ccccc3)c(=O)c2C#N)cc1`, the TGI (OVCAR-5 ovarian) is reported as greater than 100 µM, the TGI (786-0 renal) is reported as greater than 100 µM and the TGI (MCF7 breast) is reported as greater than 100 µM. It also gave a TGI (SNB-19 CNS) greater than 100 µM, a TGI (HL-60(TB) leukemia) greater than 100 µM and a TGI (RPMI-8226 leukemia) greater than 100 µM. For the same compound, the TGI (HOP-62 NSCLC) was greater than 100 µM, the TGI (SF-539 CNS) was greater than 100 µM and the TGI (MDA-MB-435) was greater than 100 µM. For the same compound, the TGI (OVCAR-8 ovarian) was greater than 100 µM, the TGI (M14 melanoma) was greater than 100 µM and the TGI (A549 NSCLC) was greater than 100 µM. For the same compound, the TGI (SNB-75 CNS) was greater than 100 µM, the TGI (SK-MEL-5 melanoma) was greater than 100 µM and the TGI (K-562 leukemia) was greater than 100 µM. For the same compound, the TGI (TK-10 renal) was greater than 100 µM, the TGI (SF-268 CNS) was greater than 100 µM and the TGI (HS 578T breast) was greater than 100 µM. It also gave a TGI (IGROV1 ovarian) greater than 100 µM, a TGI (LOX IMVI melanoma) greater than 100 µM and a TGI (NCI-H522 lung) greater than 100 µM. The TGI (A498 renal) was greater than 100 µM, the TGI (ACHN renal) was greater than 100 µM and the TGI (HCT-15 colon) was greater than 100 µM. For the same compound, the TGI (BT-549 breast) was greater than 100 µM, the TGI (COLO 205 colon) was greater than 100 µM and the TGI (U251 CNS) was greater than 100 µM. It also gave a TGI (MALME-3M melanoma) greater than 100 µM, a TGI (CCRF-CEM leukemia) greater than 100 µM and a TGI (SK-MEL-2 melanoma) greater than 100 µM. It also gave a TGI (NCI-H226 lung) greater than 100 µM, a TGI (CAKI-1 renal) greater than 100 µM and a TGI (RXF 393 renal) greater than 100 µM. For the same compound, the TGI (MDA-MB-231 breast) was greater than 100 µM, the TGI (KM12 colon) was greater than 100 µM and the TGI (NCI-H460 lung) was greater than 100 µM. The TGI (MOLT-4 leukemia) was greater than 100 µM, the TGI (SW-620 colon) was greater than 100 µM and the TGI (SK-MEL-28 melanoma) was greater than 100 µM. It also gave a TGI (NCI/ADR-RES ovarian) greater than 100 µM, a TGI (PC-3 prostate) greater than 100 µM and a TGI (SK-OV-3 ovarian) of 37 µM. For the same compound, the TGI (UACC-62 melanoma) was greater than 100 µM, the TGI (OVCAR-4 ovarian) was greater than 100 µM and the TGI (UACC-257 melanoma) was greater than 100 µM. The TGI (HCT-116 colon) was greater than 100 µM, the TGI (EKVX NSCLC) was greater than 100 µM and the TGI (HCC-2998 colon) was greater than 100 µM. The TGI (HOP-92 NSCLC) was greater than 100 µM, the TGI (SN12C renal) was greater than 100 µM and the TGI (MDA-N) was greater than 100 µM. It also gave a TGI (HT29 colon) greater than 100 µM.

Compound `C=C1CCC2C3(C)COC(c4c(OC)cccc4OC)OC3CCC2(C)C1C/C=C1/C(=O)OCC1O` (stereo not drawn) has a GI50 (OVCAR-5 ovarian) of 3.39 µM, a TGI (OVCAR-5 ovarian) of 8.63 µM and a GI50 (786-0 renal) of 3.34 µM. The TGI (786-0 renal) was 8.88 µM, the GI50 (MCF7 breast) was 2530 nM and the TGI (MCF7 breast) was 12.8 µM. It also gave a GI50 (DU-145 prostate) of 2960 nM, a TGI (DU-145 prostate) of 7.87 µM and a GI50 (SNB-19 CNS) of 14.6 µM. The TGI (SNB-19 CNS) was 29.9 µM, the GI50 (HL-60(TB) leukemia) was 1540 nM and the TGI (HL-60(TB) leukemia) was 4.9 µM. For the same compound, the GI50 (RPMI-8226 leukemia) was 2010 nM, the TGI (RPMI-8226 leukemia) was 5.67 µM and the GI50 (HOP-62 NSCLC) was 14.8 µM. The TGI (HOP-62 NSCLC) was 28.7 µM, the GI50 (SF-539 CNS) was 2550 nM and the TGI (SF-539 CNS) was 6.35 µM. The GI50 (SR leukemia) was 1620 nM, the TGI (SR leukemia) was 4.99 µM and the GI50 (MDA-MB-435) was 2880 nM. It also gave a TGI (MDA-MB-435) of 10.8 µM, a GI50 (OVCAR-8 ovarian) of 3.09 µM and a TGI (OVCAR-8 ovarian) of 11.5 µM. The GI50 (M14 melanoma) was 2960 nM, the TGI (M14 melanoma) was 9.01 µM and the GI50 (A549 NSCLC) was 3.14 µM. It also gave a TGI (A549 NSCLC) of 11.6 µM, a GI50 (SNB-75 CNS) of 2550 nM and a TGI (SNB-75 CNS) of 14.5 µM. It also gave a GI50 (OVCAR-3 ovarian) of 1940 nM, a TGI (OVCAR-3 ovarian) of 3.95 µM and a GI50 (SK-MEL-5 melanoma) of 2830 nM. It also gave a TGI (SK-MEL-5 melanoma) of 8.57 µM, a GI50 (K-562 leukemia) of 1410 nM and a TGI (K-562 leukemia) of 6.28 µM. It also gave a GI50 (TK-10 renal) of 4.03 µM, a TGI (TK-10 renal) of 12.5 µM and a GI50 (SF-268 CNS) of 3.7 µM. It also gave a TGI (SF-268 CNS) of 12.4 µM, a GI50 (HS 578T breast) of 2710 nM and a TGI (HS 578T breast) of 10.9 µM. The GI50 (IGROV1 ovarian) was 1890 nM, the TGI (IGROV1 ovarian) was 4 µM and the GI50 (LOX IMVI melanoma) was 1630 nM. For the same compound, the TGI (LOX IMVI melanoma) was 3.25 µM, the GI50 (NCI-H522 lung) was 2020 nM and the TGI (NCI-H522 lung) was 5.01 µM. The GI50 (A498 renal) was 15 µM, the TGI (A498 renal) was 29.6 µM and the GI50 (T-47D breast) was 5.43 µM. The TGI (T-47D breast) was 26.9 µM, the GI50 (ACHN renal) was 2380 nM and the TGI (ACHN renal) was 5.85 µM. It also gave a GI50 (NCI-H23 lung) of 3.98 µM, a TGI (NCI-H23 lung) of 15 µM and a GI50 (HCT-15 colon) of 2280 nM. It also gave a TGI (HCT-15 colon) of 7.87 µM, a GI50 (BT-549 breast) of 2250 nM and a TGI (BT-549 breast) of 5.64 µM. It also gave a GI50 (COLO 205 colon) of 2230 nM, a TGI (COLO 205 colon) of 4.95 µM and a GI50 (U251 CNS) of 1910 nM. For the same compound, the TGI (U251 CNS) was 4.36 µM, the GI50 (MALME-3M melanoma) was 8.92 µM and the TGI (MALME-3M melanoma) was 27.7 µM. For the same compound, the GI50 (CCRF-CEM leukemia) was 1860 nM, the TGI (CCRF-CEM leukemia) was 5.75 µM and the GI50 (SF-295 CNS) was 5.28 µM. For the same compound, the TGI (SF-295 CNS) was 18.1 µM, the GI50 (SK-MEL-2 melanoma) was 7.18 µM and the TGI (SK-MEL-2 melanoma) was 21.9 µM. For the same compound, the GI50 (NCI-H226 lung) was 2420 nM, the TGI (NCI-H226 lung) was 5.81 µM and the GI50 (CAKI-1 renal) was 1570 nM. The TGI (CAKI-1 renal) was 3.48 µM, the GI50 (RXF 393 renal) was 1920 nM and the TGI (RXF 393 renal) was 3.55 µM. The GI50 (MDA-MB-231 breast) was 7.57 µM, the TGI (MDA-MB-231 breast) was 26.4 µM and the GI50 (KM12 colon) was 2210 nM. It also gave a TGI (KM12 colon) of 4.99 µM, a GI50 (NCI-H460 lung) of 4.71 µM and a TGI (NCI-H460 lung) of 19.5 µM. For the same compound, the GI50 (MOLT-4 leukemia) was 3.22 µM, the TGI (MOLT-4 leukemia) was 13.3 µM and the GI50 (SW-620 colon) was 1710 nM. The TGI (SW-620 colon) was 3.23 µM, the GI50 (SK-MEL-28 melanoma) was 1930 nM and the TGI (SK-MEL-28 melanoma) was 4.05 µM. It also gave a GI50 (NCI/ADR-RES ovarian) of 2650 nM, a TGI (NCI/ADR-RES ovarian) of 7.03 µM and a GI50 (UO-31 renal) of 2010 nM. For the same compound, the TGI (UO-31 renal) was 4.33 µM, the GI50 (PC-3 prostate) was 2660 nM and the TGI (PC-3 prostate) was 11.7 µM. For the same compound, the GI50 (SK-OV-3 ovarian) was 5.71 µM, the TGI (SK-OV-3 ovarian) was 20.3 µM and the GI50 (UACC-62 melanoma) was 3.32 µM. For the same compound, the TGI (UACC-62 melanoma) was 15 µM, the GI50 (OVCAR-4 ovarian) was 2420 nM and the TGI (OVCAR-4 ovarian) was 6.73 µM. For the same compound, the GI50 (UACC-257 melanoma) was 13.5 µM, the TGI (UACC-257 melanoma) was 31 µM and the GI50 (HCT-116 colon) was 1640 nM. It also gave a TGI (HCT-116 colon) of 3.11 µM, a GI50 (EKVX NSCLC) of 8.47 µM and a TGI (EKVX NSCLC) of 27.3 µM. The GI50 (HCC-2998 colon) was 4.18 µM, the TGI (HCC-2998 colon) was 11.2 µM and the GI50 (HOP-92 NSCLC) was 2920 nM. For the same compound, the TGI (HOP-92 NSCLC) was 8.51 µM, the GI50 (SN12C renal) was 2330 nM and the TGI (SN12C renal) was 8.27 µM. The GI50 (HT29 colon) was 2510 nM and the TGI (HT29 colon) was 6.62 µM.
